ChEMBL document CHEMBL1157113, “Insulin-like growth factor-1 receptor (IGF-1R) kinase inhibitors: SAR of a series of 3-[6-(4-substituted-piperazin-1-yl)-4-methyl-1H-benzimidazol-2-yl]-1H-pyridine-2-one” (Bioorg Med Chem Lett, 2010)

Assays:
Format in all cases: ADME, organism-based
[1] = AUC (0 to 4 hrs) in mouse at 20 mg/kg; design: time < 4 hr, dose 20 mg/kg; settings: plasma
[2] = Half life in mouse at 5 mg/kg, iv and 75 mg/kg, po; settings: in vivo
[3] = Half life in rat at 5 mg/kg, iv and 75 mg/kg, po; settings: in vivo
[4] = Oral bioavailability in rat at 75 mg/kg; settings: in vivo
[5] = Total clearance in rat at 5 mg/kg, iv and 75 mg/kg, po; settings: in vivo
[6] = Volume of distribution at steady state in rat at 5 mg/kg, iv and 75 mg/kg, po; settings: in vivo, read-out: Vdss
[7] = Oral bioavailability in mouse at 75 mg/kg; settings: in vivo
[8] = Total clearance in mouse at 5 mg/kg, iv and 75 mg/kg, po; settings: in vivo
[9] = Volume of distribution at steady state in mouse at 5 mg/kg, iv and 75 mg/kg, po; settings: in vivo, read-out: Vdss

AUC(0-t) at 4 h [1] | Structure (SMILES) | other results
1.6 µM·h | CNC(=O)CN1CCN(c2cc(C)c3nc(-c4c(NC[C@@H](O)c5cccc(Cl)c5)cc[nH]c4=O)[nH]c3c2)CC1 | –
57.1 µM·h | COC(=O)N1CCN(c2cc(C)c3nc(-c4c(NC[C@@H](O)c5cccc(Cl)c5)cc[nH]c4=O)[nH]c3c2)CC1 | –
3.1 µM·h | CC(=O)N1CCN(c2cc(C)c3nc(-c4c(NC[C@@H](O)c5cccc(Cl)c5)cc[nH]c4=O)[nH]c3c2)CC1 | –
3.4 µM·h | Cc1cc(N2CCN(C)CC2)cc2[nH]c(-c3c(NC[C@@H](O)c4cccc(Cl)c4)cc[nH]c3=O)nc12 | –
25.3 µM·h | CCOC(=O)N1CCN(c2cc(C)c3nc(-c4c(NC[C@@H](O)c5cccc(Cl)c5)cc[nH]c4=O)[nH]c3c2)CC1 | –
8.3 µM·h | Cc1cc(N2CCN(C(=O)OC(C)(C)C)CC2)cc2[nH]c(-c3c(NC[C@@H](O)c4cccc(Cl)c4)cc[nH]c3=O)nc12 | –

More lines, now with the values behind:

Structure (SMILES) | AUC(0-t) at 4 h [1] | other results
Cc1cc(N2CCN(CCF)CC2)cc2[nH]c(-c3c(NC[C@@H](O)c4cccc(Cl)c4)cc[nH]c3=O)nc12 | 17.7 µM·h | –
Cc1cc(N2CCN(CCC#N)CC2)cc2nc(-c3c(NC[C@@H](O)c4cccc(Cl)c4)cc[nH]c3=O)[nH]c12 | 22.1 µM·h | –
Cc1cc(N2CCNCC2)cc2[nH]c(-c3c(NC[C@@H](O)c4cccc(Cl)c4)cc[nH]c3=O)nc12 | 26.5 µM·h | –
Cc1cc(N2CCN(CC#N)CC2)cc2[nH]c(-c3c(NC[C@@H](O)c4cccc(Cl)c4)cc[nH]c3=O)nc12 | 10.3 µM·h | –
Cc1cc(N2CCN(S(C)(=O)=O)CC2)cc2[nH]c(-c3c(NC[C@@H](O)c4cccc(Cl)c4)cc[nH]c3=O)nc12 | 7.2 µM·h | –
COCCN1CCN(c2cc(C)c3nc(-c4c(NC[C@@H](O)c5cccc(Cl)c5)cc[nH]c4=O)[nH]c3c2)CC1 | 11.1 µM·h | half-life [2]: 2.9 h; half-life [3]: 1.9 h; bioavailability [4]: 26%; clearance [5]: 27.8 mL/min/kg; Vd [6]: 2.9 L/kg; bioavailability [7]: 26%; clearance [8]: 25.2 mL/min/kg; Vd [9]: 4.9 L/kg
Cc1cc(N2CCN(CC(=O)NCCF)CC2)cc2[nH]c(-c3c(NC[C@@H](O)c4cccc(Cl)c4)cc[nH]c3=O)nc12 | 1.4 µM·h | –
Cc1cc(N2CCN(C(=O)CCCF)CC2)cc2[nH]c(-c3c(NC[C@@H](O)c4cccc(Cl)c4)cc[nH]c3=O)nc12 | 4.5 µM·h | –
CCN1CCN(c2cc(C)c3nc(-c4c(NC[C@@H](O)c5cccc(Cl)c5)cc[nH]c4=O)[nH]c3c2)CC1 | 1 µM·h | –
Cc1cc(N2CCOCC2)cc2[nH]c(-c3c(NC[C@@H](O)c4cccc(Cl)c4)cc[nH]c3=O)nc12 | 50 µM·h | –
Cc1cc(N2CCN(CCCF)CC2)cc2[nH]c(-c3c(NC[C@@H](O)c4cccc(Cl)c4)cc[nH]c3=O)nc12 | 11.4 µM·h | –
